Experimental data: patent US10357493B2, “Metalloenzyme inhibitor compounds” (Selenity Therapeutics (Bermuda), Ltd., priority 2017, dated 2019)

Experiments:
HDAC1 = HDAC1 (Homo sapiens (Human), UniProt Q13547); test: HDAC1 enzymatic assay; format: biochemical; conditions: read-out: Human HDAC1 IC50
Summary of the method: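 Compound inhibition of human HDAC1 (0.5 ng enzyme, 10 uM substrate) was assessed by fluorescence after developer treatment, excitation 360 nm and emission 460 nm. Percent activity was normalized to no-compound (100%) and no-enzyme (0%) controls, plotted against concentration, and fitted to a sigmoidal dose-response curve in Graphpad Prism to obtain IC50 at half-maximal activity.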

HDAC6 = HDAC6 (Homo sapiens (Human), UniProt Q9UBN7); test: HDAC6 enzymatic assay; format: biochemical; conditions: read-out: Human HDAC6 IC50
HDAC6, sequence (Q9UBN7 whole entry): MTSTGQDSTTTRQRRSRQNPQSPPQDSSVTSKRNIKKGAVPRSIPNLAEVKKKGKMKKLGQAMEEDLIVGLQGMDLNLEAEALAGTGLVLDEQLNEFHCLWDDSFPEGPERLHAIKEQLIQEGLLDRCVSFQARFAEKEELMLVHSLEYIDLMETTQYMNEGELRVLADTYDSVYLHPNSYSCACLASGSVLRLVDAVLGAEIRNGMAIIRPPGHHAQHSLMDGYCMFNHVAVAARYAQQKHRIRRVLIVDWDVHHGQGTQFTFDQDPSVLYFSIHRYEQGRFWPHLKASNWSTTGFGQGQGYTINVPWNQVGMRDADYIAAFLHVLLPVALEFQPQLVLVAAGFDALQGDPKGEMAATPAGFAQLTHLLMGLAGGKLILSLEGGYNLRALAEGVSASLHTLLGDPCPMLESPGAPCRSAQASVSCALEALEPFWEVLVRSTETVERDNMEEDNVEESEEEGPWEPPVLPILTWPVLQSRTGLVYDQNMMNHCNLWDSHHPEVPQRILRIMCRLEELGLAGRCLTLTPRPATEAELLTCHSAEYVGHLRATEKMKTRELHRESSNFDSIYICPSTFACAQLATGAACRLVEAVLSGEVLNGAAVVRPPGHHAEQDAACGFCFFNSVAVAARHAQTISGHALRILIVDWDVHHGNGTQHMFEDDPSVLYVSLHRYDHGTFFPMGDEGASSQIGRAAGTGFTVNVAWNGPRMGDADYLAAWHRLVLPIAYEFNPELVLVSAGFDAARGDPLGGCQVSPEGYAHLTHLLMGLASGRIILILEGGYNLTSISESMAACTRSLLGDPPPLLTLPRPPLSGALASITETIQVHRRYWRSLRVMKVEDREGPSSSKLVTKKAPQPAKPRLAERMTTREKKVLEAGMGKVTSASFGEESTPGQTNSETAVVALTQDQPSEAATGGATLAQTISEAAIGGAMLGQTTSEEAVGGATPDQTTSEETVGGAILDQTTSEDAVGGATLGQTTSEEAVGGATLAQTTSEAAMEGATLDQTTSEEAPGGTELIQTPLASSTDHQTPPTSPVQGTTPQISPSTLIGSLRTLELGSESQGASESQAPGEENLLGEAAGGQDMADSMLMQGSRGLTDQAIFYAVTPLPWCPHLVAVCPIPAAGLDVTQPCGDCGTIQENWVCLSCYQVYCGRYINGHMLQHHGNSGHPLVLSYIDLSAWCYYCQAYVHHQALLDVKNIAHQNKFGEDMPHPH
Summary of the method: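 Following a 17 hour room-temperature incubation of 2 ng HDAC6 with 10 uM substrate and compound, 50 μl developer was added for another 20 minutes, and fluorescence (excitation 360 nm, emission 460 nm) was recorded. Activity was normalized to no-compound (100%) and no-enzyme (0%) wells, and IC50 came from sigmoidal dose-response fitting in Graphpad Prism.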

HDAC1, sequence (Q13547 whole entry): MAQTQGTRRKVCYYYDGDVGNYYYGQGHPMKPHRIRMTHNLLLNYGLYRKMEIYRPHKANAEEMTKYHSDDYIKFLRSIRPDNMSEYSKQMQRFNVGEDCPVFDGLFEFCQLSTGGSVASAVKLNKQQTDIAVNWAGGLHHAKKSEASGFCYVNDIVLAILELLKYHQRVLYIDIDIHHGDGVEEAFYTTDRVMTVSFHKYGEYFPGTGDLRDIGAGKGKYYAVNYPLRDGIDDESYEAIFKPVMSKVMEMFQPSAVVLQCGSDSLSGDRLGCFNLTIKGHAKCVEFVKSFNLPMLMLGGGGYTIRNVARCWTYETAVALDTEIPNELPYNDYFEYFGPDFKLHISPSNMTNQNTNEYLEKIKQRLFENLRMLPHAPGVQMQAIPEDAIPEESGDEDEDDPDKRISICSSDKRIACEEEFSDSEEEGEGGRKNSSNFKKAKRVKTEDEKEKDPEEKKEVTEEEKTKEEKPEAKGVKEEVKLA

## O=S(=O)(C1CC1)N(CC(Nc1ncc(-c2nnc(C(F)F)o2)cn1)c1ccc(F)cc1)CC(F)(F)F (single isomer, unassigned) [165(−), N-(2-((5-(5-(difluoromethyl)-1,3,4-oxadiazol-2-yl)pyrimidin-2-yl)amino)-2-(4-fluorophenyl)ethyl)-N-(2,2,2-trifluoroethyl)cyclopropanesulfonamide]
HDAC1
  IC50: > 30 µM
HDAC6
  IC50: 0.16 µM

## FC(F)c1nnc(-c2cnc(NC3(c4cccc(Cl)c4)CC3)nc2)o1 [Example 51, N-(1-(3-chlorophenyl)cyclopropyl)-5-(5-(difluoromethyl)-1,3,4-oxadiazol-2-yl)pyrimidin-2-amine]
HDAC1
  IC50: > 30 µM
HDAC6
  IC50: 0.015 µM

## CN(CC(Nc1ncc(-c2nnc(C(F)F)o2)cn1)c1ccc(OC(F)F)cc1F)S(C)(=O)=O (stereo not drawn) [145(+), N-(2-(4-(difluoromethoxy)-2-fluorophenyl)-2-((5-(5-(difluoromethyl)-1,3,4-oxadiazol-2-yl)pyrimidin-2-yl)amino)ethyl)-N-methylmethanesulfonamide]
HDAC1
  IC50: > 30 µM
HDAC6
  IC50: 0.041 µM

## FC(F)c1nnc(-c2cnc(NC3(c4ccc(OC(F)(F)F)cc4)CC3)nc2)o1 [Example 54, 5-(5-(difluoromethyl)-1,3,4-oxadiazol-2-yl)-N-(1-(4-(trifluoromethoxy)phenyl)cyclopropyl) pyrimidin-2-amine]
HDAC1
  IC50: > 30 µM
HDAC6
  IC50: 0.022 µM

## Fc1ccc(F)c(C2(Nc3ncc(-c4nnc(C(F)F)o4)cn3)CC2)c1 [Example 61, 5-(5-(difluoromethyl)-1,3,4-oxadiazol-2-yl)-N-(1-(2,5-difluorophenyl)cyclopropyl) pyrimidin-2-amine]
HDAC1
  IC50: > 30 µM
HDAC6
  IC50: 0.022 µM

## CS(=O)(=O)NCC(Nc1ncc(-c2nnc(C(F)F)o2)cn1)c1ccc(OC(F)(F)F)cc1 (single isomer, unassigned) [122(−), N-(2-((5-(5-(difluoromethyl)-1,3,4-oxadiazol-2-yl)pyrimidin-2-yl)amino)-2-(4-(trifluoromethoxy)phenyl)ethyl)methanesulfonamide]
HDAC1
  IC50: > 30 µM
HDAC6
  IC50: 0.84 µM

## CN(CC(Nc1ncc(-c2nnc(C(F)F)o2)cn1)c1ccc(F)cc1F)S(C)(=O)=O (single isomer, unassigned) [137(+), N-(2-((5-(5-(difluoromethyl)-1,3,4-oxadiazol-2-yl)pyrimidin-2-yl)amino)-2-(2,4-difluorophenyl)ethyl)-N-methylmethanesulfonamide]
HDAC1
  IC50: > 30 µM
HDAC6
  IC50: 0.041 µM

## CC(=O)NCC(Nc1ncc(-c2nnc(C(F)F)o2)cn1)c1ccc(F)cc1 (single isomer, unassigned) [78(+), N-(2-((5-(5-(difluoromethyl)-1,3,4-oxadiazol-2-yl)pyrimidin-2-yl)amino)-2-(4-fluorophenyl)ethyl)acetamide]
HDAC1
  IC50: > 30 µM
HDAC6
  IC50: 0.048 µM

## N#Cc1ccc(C2(Nc3ncc(-c4nnc(C(F)F)o4)cn3)CC2)cc1 [Example 48, 4-(1-((5-(5-(difluoromethyl)-1,3,4-oxadiazol-2-yl)pyrimidin-2-yl)amino)cyclopropyl) benzonitrile]
HDAC1
  IC50: > 30 µM
HDAC6
  IC50: 0.046 µM

## FC(F)c1nnc(-c2cnc(OC3(c4ccccc4)CC3)nc2)o1 [Example 12, 2-(difluoromethyl)-5-(2-(1-phenylcyclopropoxy)pyrimidin-5-yl)-1,3,4-oxadiazole]
HDAC1
  IC50: > 30 µM
HDAC6
  IC50: 0.21 µM

## CC(=O)N1CCC(Nc2ncc(-c3nnc(C(F)F)o3)cn2)(c2ccc(F)cc2)CC1 [Example 26, 1-(4-((5-(5-(difluoromethyl)-1,3,4-oxadiazol-2-yl)pyrimidin-2-yl)amino)-4-(4-fluorophenyl)piperidin-1-yl)ethan-1-one]
HDAC1
  IC50: > 30 µM
HDAC6
  IC50: 0.14 µM

## Fc1ccc(C2(Nc3ncc(-c4nnc(C(F)F)o4)cn3)CCN(c3ccccc3)CC2)cc1 [Example 17, 5-(5-(difluoromethyl)-1,3,4-oxadiazol-2-yl)-N-(4-(4-fluorophenyl)-1-phenylpiperidin-4-yl)pyrimidin-2-amine]
HDAC1
  IC50: > 30 µM
HDAC6
  IC50: 0.16 µM

## Fc1ccc(C2(Nc3ncc(-c4nnc(C(F)F)o4)cn3)CC2)c(F)c1 [Example 10, 5-(5-(difluoromethyl)-1,3,4-oxadiazol-2-yl)-N-(1-(2,4-difluorophenyl)cyclopropyl)pyrimidin-2-amine]
HDAC1
  IC50: > 100 µM
HDAC6
  IC50: 0.009 µM

## Fc1ccc(-c2ccc(C3(Nc4ncc(-c5nnc(C(F)F)o5)cn4)CC3)cc2)cc1 [Example 16, 5-(5-(difluoromethyl)-1,3,4-oxadiazol-2-yl)-N-(1-(4′-fluoro-[1,1′-biphenyl]-4-yl)cyclopropyl) pyrimidin-2-amine]
HDAC1
  IC50: > 30 µM
HDAC6
  IC50: 0.095 µM

## CS(=O)(=O)N(CC(Nc1ncc(-c2nnc(C(F)F)o2)cn1)c1ccc(OC(F)(F)F)cc1)CC(F)(F)F (stereo not drawn) [154(+), N-(2-((5-(5-(difluoromethyl)-1,3,4-oxadiazol-2-yl)pyrimidin-2-yl)amino)-2-(4-(trifluoromethoxy)phenyl)ethyl)-N-(2,2,2-trifluoroethyl)methanesulfonamide]
HDAC1
  IC50: > 30 µM
HDAC6
  IC50: 0.26 µM

## Fc1cc(F)cc(C2(Nc3ncc(-c4nnc(C(F)F)o4)cn3)CC2)c1 [Example 72, 5-(5-(difluoromethyl)-1,3,4-oxadiazol-2-yl)-N-(1-(3,5-difluorophenyl)cyclopropyl) pyrimidin-2-amine]
HDAC1
  IC50: > 30 µM
HDAC6
  IC50: 0.035 µM

## CCS(=O)(=O)N(CC(Nc1ncc(-c2nnc(C(F)F)o2)cn1)c1ccc(OC(F)(F)F)cc1)CC(F)(F)F (stereo not drawn) [157(+), N-(2-((5-(5-(difluoromethyl)-1,3,4-oxadiazol-2-yl)pyrimidin-2-yl)amino)-2-(4-(trifluoromethoxy)phenyl)ethyl)-N-(2,2,2-trifluoroethyl)ethanesulfonamide]
HDAC1
  IC50: > 30 µM
HDAC6
  IC50: 0.44 µM

## CS(=O)(=O)NCC(Nc1ncc(-c2nnc(C(F)F)o2)cn1)c1ccc(F)cc1 (stereo not drawn) [Example 38, N-(2-((5-(5-(difluoromethyl)-1,3,4-oxadiazol-2-yl)pyrimidin-2-yl)amino)-2-(4-fluorophenyl)ethyl)methanesulfonamide]
HDAC1
  IC50: > 30 µM
HDAC6
  IC50: 0.029 µM

## CS(=O)(=O)N(CC(Nc1ncc(-c2nnc(C(F)F)o2)cn1)c1ccc(Cl)cc1)CC(F)(F)F (single isomer, unassigned) [174(−), N-(2-(4-chlorophenyl)-2-((5-(5-(difluoromethyl)-1,3,4-oxadiazol-2-yl)pyrimidin-2-yl)amino)ethyl)-N-(2,2,2-trifluoroethyl)methanesulfonamide]
HDAC1
  IC50: > 30 µM
HDAC6
  IC50: 0.11 µM

## O=S(=O)(C1CC1)N(CC(Nc1ncc(-c2nnc(C(F)F)o2)cn1)c1ccc(F)cc1F)CC(F)(F)F (stereo not drawn) [144(+), N-(2-((5-(5-(difluoromethyl)-1,3,4-oxadiazol-2-yl)pyrimidin-2-yl)amino)-2-(2,4-difluorophenyl)ethyl)-N-(2,2,2-trifluoroethyl)cyclopropanesulfonamide]
HDAC1
  IC50: > 30 µM
HDAC6
  IC50: 0.16 µM

## O=S(=O)(C1CC1)N(CC(Nc1ncc(-c2nnc(C(F)F)o2)cn1)c1ccc(OC(F)F)cc1F)CC(F)(F)F (stereo not drawn) [152(+), N-(2-(4-(difluoromethoxy)-2-fluorophenyl)-2-((5-(5-(difluoromethyl)-1,3,4-oxadiazol-2-yl)pyrimidin-2-yl)amino)ethyl)-N-(2,2,2-trifluoroethyl)cyclopropanesulfonamide]
HDAC1
  IC50: > 30 µM
HDAC6
  IC50: 0.28 µM
